# System: IL-2 stimulated pSTAT5 in CD4+ T cells
# Assay: Inhibition of IL-2 stimulated pSTAT5 in CD4+ T cells isolated from murine splenocytes
# Type: cell-based
# Conditions: Mus musculus, AlphaLisa, read-out: pIC50, inhibition of IL-2 stimulated pSTAT5 (converted)
# Description: The potency of test compounds for inhibition of interleukin-2 (IL-2) stimulated STAT5 phosphorylation was measured in the CD4+ T cells isolated from murine splenocytes using AlphaLisa. Because IL-2 signals through JAK3, this assay provides a measure of JAK3 cellular potency in mouse.
# Phosphorylated STAT5 was measured via the AlphaLISA SureFire Ultra pSTAT5 (Tyr694/699) kit (PerkinElmer).
# CD4+ T cells were isolated from murine splenocytes via negative selection on a magnetic column (Miltnyi Biotec) and re-suspended in assay media (phenol red-free DMEM (Life Technologies) supplemented with 10% FBS (ATCC)). Cells were seeded at 50,000 cells/well in assay media (2 μL/well). Compounds were serially diluted in DMSO and diluted to 2× final concentration in assay media. Compound was added (4 μl/well) and the cells incubated at 37° C., 5% CO2 for 1 hour, followed by the addition of IL-2 (R&D Systems; final concentration 7 ng/ml) in pre-warmed assay media (2 μL) for 30 minutes. After cytokine stimulation, cells were lysed with 2 μl of 5× AlphaLisa Lysis Buffer (PerkinElmer). The lysate was shaken at 900 rpm for 10 minutes at room temperature (RT). Phosphorylated STAT5 was measured via the pSTAT5 AlphaLisa kit (PerkinElmer). Freshly prepared acceptor bead mixture was dispensed onto lysate (5 ul) under green filtered <100 lux light. Plates were shaken at 900 rpm for 2 mins, briefly spun down, and incubated for 2 hrs at RT in the dark. Donor beads were dispensed (5 μl) under green filtered <100 lux light. Plates were shaken at 900 rpm for 2 mins, briefly spun down, and incubated overnight at RT in the dark. Luminescence was measured with excitation at 689 nm and emission at 570 nm using an EnVision plate reader (PerkinElmer) under green filtered <100 lux light.
# To determine the inhibitory potency of test compounds in response to IL-2, the average emission intensity of beads bound to pSTAT5 was measured in primary CD4+ T cells isolated from murine splenocytes. IC50 values were determined from analysis of the inhibition curves of signal intensity vs compound concentration. Data are expressed as pIC50 (negative decadic logarithm IC50) values (mean±standard deviation).
row,Compound,IC50 [nM]
1,"C=CC(=O)N1CC(C(C)(C)Oc2cc(-c3ccc(O)cc3)nc3[nH]ncc23)C1 [Compound 20, 1-(3-(2-((6-(4-hydroxyphenyl)-1H-pyrazolo[3,4-b]pyridin-4-yl)oxy)propan-2-yl)azetidin-1-yl)prop-2-en-1-one]",< 1000
2,"C=CC(=O)N1CC(C)(COc2nc(-c3ccc(O)c(F)c3)nc3[nH]ncc23)C1 [Compound 21, 1-(3-(((6-(3-fluoro-4-hydroxyphenyl)-1H-pyrazolo[3,4-d]pyrimidin-4-yl)oxy)methyl)-3-methylazetidin-1-yl)prop-2-en-1-one]",< 1000
3,"C=CC(=O)N1CC(CC)(COc2cc(-c3ccc(O)cc3)nc3[nH]ncc23)C1 [Compound 22, 1-(3-ethyl-3-(((6-(4-hydroxyphenyl)-1H-pyrazolo[3,4-b]pyridin-4-yl)oxy)methyl)azetidin-1-yl)prop-2-en-1-one]",< 1000

# Target: T1, JAK3 (Homo sapiens, UniProt P52333)
# T1 sequence (P52333 1-1124): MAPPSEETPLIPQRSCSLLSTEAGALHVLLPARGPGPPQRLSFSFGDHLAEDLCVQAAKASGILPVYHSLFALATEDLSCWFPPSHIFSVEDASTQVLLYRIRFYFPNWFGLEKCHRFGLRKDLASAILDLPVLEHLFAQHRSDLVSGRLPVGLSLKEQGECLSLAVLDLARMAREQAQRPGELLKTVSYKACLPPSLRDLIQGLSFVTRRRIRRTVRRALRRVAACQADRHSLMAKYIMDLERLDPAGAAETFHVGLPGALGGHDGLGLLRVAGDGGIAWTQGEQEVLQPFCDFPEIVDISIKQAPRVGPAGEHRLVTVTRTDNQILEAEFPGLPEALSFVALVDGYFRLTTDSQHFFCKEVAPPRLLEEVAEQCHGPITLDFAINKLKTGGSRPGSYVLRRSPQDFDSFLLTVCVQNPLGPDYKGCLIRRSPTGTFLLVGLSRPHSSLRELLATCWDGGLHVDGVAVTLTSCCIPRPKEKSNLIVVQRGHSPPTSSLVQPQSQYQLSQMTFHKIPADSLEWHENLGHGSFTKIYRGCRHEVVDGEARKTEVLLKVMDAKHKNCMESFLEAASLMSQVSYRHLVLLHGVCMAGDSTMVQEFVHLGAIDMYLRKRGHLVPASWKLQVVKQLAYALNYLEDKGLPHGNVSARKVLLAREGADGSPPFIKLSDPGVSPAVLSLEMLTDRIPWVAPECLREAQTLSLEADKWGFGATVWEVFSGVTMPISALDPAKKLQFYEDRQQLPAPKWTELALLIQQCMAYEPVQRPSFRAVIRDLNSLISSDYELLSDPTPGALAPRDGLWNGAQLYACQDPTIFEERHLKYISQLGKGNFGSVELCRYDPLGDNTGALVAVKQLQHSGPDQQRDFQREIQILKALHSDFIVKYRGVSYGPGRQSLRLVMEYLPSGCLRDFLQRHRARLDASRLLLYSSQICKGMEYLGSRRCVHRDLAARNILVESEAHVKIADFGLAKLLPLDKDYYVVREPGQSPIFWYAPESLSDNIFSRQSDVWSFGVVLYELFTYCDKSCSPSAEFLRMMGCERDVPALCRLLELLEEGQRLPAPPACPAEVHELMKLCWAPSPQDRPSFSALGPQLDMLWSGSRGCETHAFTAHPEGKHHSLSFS
# Assay: Co-crystal structures bound to human JAK3
# Conditions: ATP binding site of human JAK3
# Source text: Co-crystal structures were obtained for compounds 1, 3 and 4 each bound to human JAK3. The resolutions for the complex structures were at 2.73 Å, 2.80 Å, and 2.64 Å respectively for compound 1, compound 3 and compound 4. […] Based on a distance of less than 3.5 Å of the donor and acceptor atoms four specific hydrogen bonds were identified for each of the ligands, namely to the main chain atoms of Glu903, Leu905 and Phe968 as well as the side chain atoms of Glu871. An additional hydrogen bond was identified for compound 1 to the side chain atoms of Asp 912. […] The S—H moiety of the cysteine residue performs an addition reaction to the Michael system. The observed results of the covalent binding interaction in the crystal structures confirms the irreversible binding nature for each of these ligands to JAK3.
row,Compound,binding mode in co-crystal structure
1,"C=CC(=O)N1CC(COc2nc(-c3ccc(O)cc3)nc3[nH]ncc23)C1 [Compound 4, 1-(3-(((6-(4-hydroxyphenyl)-1H-pyrazolo[3,4-d]pyrimidin-4-yl)oxy)methyl)azetidin-1-yl)prop-2-en-1-one]",covalently bound to Cys909 of JAK3
2,"CN(C)C/C=C/C(=O)N1CC(C(C)(C)Oc2cc(-c3ccc(O)c(Cl)c3)cc3[nH]ncc23)C1 [Compound 3, (E)-1-(3-(2-((6-(3-chloro-4-hydroxyphenyl)-1H-indazol-4-yl)oxy)propan-2-yl)azetidin-1-yl)-4-(dimethylamino)but-2-en-1-one]",covalently bound to Cys909 of JAK3
3,"CN(C)C/C=C/C(=O)N1CC(COc2cc(-c3ccc(O)cc3)cc3[nH]ncc23)C1 [Compound 1, (E)-4-(dimethylamino)-1-(3-(((6-(4-hydroxyphenyl)-1H-indazol-4-yl)oxy)methyl)azetidin-1-yl)but-2-en-1-one]",covalently bound to Cys909 of JAK3

# Source: patent publication US10392368B2, “Pyrazolo and triazolo bicyclic compounds as JAK kinase inhibitors” (THERAVANCE BIOPHARMA R&D IP, LLC, priority 2017, dated 2019)
